Five compounds from ChEMBL document CHEMBL1777784, “New antiplasmodial indole alkaloids from Hunteria zeylanica” (Bioorg Med Chem Lett, 2011) can be followed below.

Assay [1] concerns HL-60. Kind of assay: Cytotoxicity against human HL60 cells. The class given is cell-based.
In assay [2] the test system is Plasmodium falciparum. Description: Antiplasmodial activity against Plasmodium falciparum 3D7 by Geimsa staining method. The class given is functional, organism-based.
Assay [3] can be described thus: Selectivity index, ratio of IC50 for Plasmodium falciparum 3D7 to IC50 for human HL60 cells. Set-up: species or system HL-60.

The structures appear in SMILES notation.

In general, IC50 refers to the concentration needed to halve the response being measured.

Take `C/C=C1/C[N@@+]2(C)CCc3c([nH]c4ccc(O)c(C5=C[C@@]6(CC)CCCN7CCc8c(n5c5ccccc85)[C@H]76)c34)[C@H]2C[C@@H]1CCO` [BISNICALATERINE D]: the IC50 was over 50 µM in assay [1] and over 50 µM in assay [2] (Plasmodium falciparum, 3D7).

On to `C/C=C1/CN(C)[C@H]2Cc3c([nH]c4ccccc34)[C@H](n3c4c(c5ccccc53)C[C@H]3[C@@H](C(=O)OC)[C@H](C[C@H]4O)/C(=C\C)CN3C)C[C@H]1[C@@H]2C(=O)OC` [BISNICALATERINE A], for which the IC50 in assay [1] came to 16.2 µM; in assay [2] (Plasmodium falciparum, 3D7), 4.36 µM. Besides, in assay [3], the “Ratio IC50” value was 3.7.

In the case of `CCc1c[n+]2ccc3c4ccccc4[nH]c3c2cc1CCO` [NICALATERINE A], the IC50 in assay [1] was over 50 µM; in assay [2] (Plasmodium falciparum, 3D7), 0.11 µM. Besides, the “Ratio IC50” value in assay [3] is recorded as over 450.

As for `C/C=C1/C[N@@+]2(C)CCc3c([nH]c4ccc(O)c([C@@H]5C[C@@]6(CC)CCCN7CCc8c(n5c5ccccc85)[C@H]76)c34)[C@H]2C[C@@H]1CCO` (stereo in doubt; 5) [BISNICALATERINE B], the “Ratio IC50” value in assay [3] is over 1000. The IC50 in assay [2] is 0.05 µM.

With `C/C=C1/C[N@@+]2(C)CCc3c([nH]c4ccc(O)c([C@@H]5C[C@@]6(CC)CCCN7CCc8c(n5c5ccccc85)[C@H]76)c34)[C@H]2C[C@@H]1CCO` (stereo in doubt; 4) [BISNICALATERINE B], the IC50 is over 50 µM in assay [1] and 1.13 µM in assay [2]. Moreover, in assay [3], the “Ratio IC50” value was over 44.
